pKd: −log10 of the molar value.
Target: T1, STING (Homo sapiens, UniProt Q86WV6, H232R)
T1 construct: gene STING1; carboxy-terminal domain (STING^R232/CTD; CTD printed as residues 149–379)
Experiment: isothermal titration calorimetry (ITC)
Format: binding

T1 sequence (Q86WV6 149-379 H232R): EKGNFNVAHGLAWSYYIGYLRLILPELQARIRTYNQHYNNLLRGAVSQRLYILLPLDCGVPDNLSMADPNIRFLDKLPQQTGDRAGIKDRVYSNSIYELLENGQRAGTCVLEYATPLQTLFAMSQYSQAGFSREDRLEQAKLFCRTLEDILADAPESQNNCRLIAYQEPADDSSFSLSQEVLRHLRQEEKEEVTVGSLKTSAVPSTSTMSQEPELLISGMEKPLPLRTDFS

`Nc1nc2c(ncn2[C@@H]2O[C@@H]3CO[P@](=O)(O)O[C@H]4[C@@H](O)[C@H](n5cnc6c(=O)[nH]c(N)nc65)O[C@@H]4CO[P@](=O)(O)O[C@H]3[C@H]2O)c(=O)[nH]1` [c-di-GMP] was tested. Which pKd did it give?
Its pKd is 5.39.

Source: publication PMC6753226, “Highly Efficient Preparation of Cyclic Dinucleotides via Engineering of Dinucleotide Cyclases in Escherichia coli” (Frontiers in Microbiology, 2019)
